# From patent publication US10364263B2, “Cyclic phosphates and cyclic phosphoramidates for the treatment of neurologic disorders” (Retrophin, Inc., priority 2015, dated 2019)
# Columns and labels:
# [1] = Stability in human hepatocytes; type: in vitro ADME; details: Diastereoisomer A (upfield shift in 31P NMR), 5 μM, 1 million cells/ml, 37° C., human hepatocytes, read-out: t1/2, Human Hepatocytes, Diastereoisomer A (converted)
# [2] = Permeability in porcine brain endothelial cell blood-brain barrier model; type: in vitro ADME; details: pig (endothelial cells), co-cultured with rat astrocytes, pH 7.4, PBECs/As blood-brain barrier model, luminal to basal; Diastereoisomer A; read-out: Papp Diastereoisomer A
# Excerpt: Compounds disclosed herein show the potential to reach mammalian brain by crossing the blood-brain barrier (BBB) from systemic circulation. […] The porcine brain endothelial cell permeability assay is an in vitro BBB model to be used for the prediction of central nervous system (CNS) drug permeability in vivo and for ranking or prioritization of compounds according to their permeability. This system can also be used for mechanistic studies and drug delivery strategies via receptor-mediated transport (transcytosis). The system is a two-dimensional co-culture, non-contact model of two types of primary cells: primary brain endothelial cells obtained from fresh porcine brains, and primary rat astrocytes, obtained from neonatal rats. This ensures barrier formation and functional expression of key transporters.
# The endothelial cells were cultured on rat-tail collagen type I and human fibronectin coated Transwell polycarbonate inserts (surface area 0.7 cm^2; pore size 0.4 μm) and the inserts were placed in 24-well plates containing confluent rat astrocytes. This system allows for the formation of a differentiated BBB model suitable for compound permeability in 10 days.
# On the day of the experiment, culture medium was removed and cells were pre-incubated for 30 min with HBSS containing 20 mM Hepes pH 7.4 and 0.1% BSA. Donor volume (apical) was 400 μl and receiver volume (basal) 900 μl. Compounds were diluted in assay medium (at the desired concentration) and added to the luminal side (to mimic blood to brain passage). Transport was measured usually after 60 min by detecting the amount of compound from the basal (brain side). The integrity of the cell layers was assessed by measuring the transendothelial electrical resistance (TEER) and by monitoring FITC-dextran (40 KDa) permeation. Inserts with TEER values […] were selected for permeability studies. As FITC-dextran cannot freely permeate lipophilic barriers, a high degree of FITC-dextran transport indicates poor integrity of the cell layer and wells with high FITC-dextran permeability were excluded. FITC-dextran was included as internal control in each insert used for permeability studies. Fluorescence was measured using a fluorimetric detector. Radioactivity was measured by scintillation counting. For LC-MS/MS analysis, aliquots (200 μl) from the basal compartment were diluted with an equal volume of 100% acetonitrile containing 0.1% formic acid, centrifuged to remove cell debris, and evaporated under N2. After reconstitution, samples were analyzed by LC-MS/MS. Mass balance was determined considering the amount of compound recovered in the donor and receiver chamber at the end of the assay relative to the amount added to the donor chamber at time 0.
# Permeability was defined as the apparent permeability coefficient (Papp), which is a measure of the appearance rate of the compound in the receiver chamber, expressed in cm/s. Papp is calculated according the following equation: Papp[cm/sec]=Vd*ΔMr/A*Md*Δt, Equation 2: where
# Vd=volume in the donor compartment in cm^3 or mL;
# ΔMr=total amount of compound in the receiver compartment after t seconds;
# Md=donor amount (added at time 0)
# Δt=time measured in seconds
# A=filter area in cm^2 (for 24 well plate, A=0.7 cm^2).
# To correct for the contribution of filter and substrate, Papp was also determined for the cell-free system. Permeability of the endothelial cell layer was determined using the following equation: […], Equation 3: where
# Ptotal=the P of the total system,
# Pf=P for the cell-free filter, and
# Pe=P for the endothelial cell layer alone. In this equation, the total resistance of the system towards passage of a substance is additively composed of two […] resistances: that of the cell monolayer and that of the filter.
# [3] = Stability in mouse hepatocytes; type: in vitro ADME; details: Diastereoisomer A (upfield shift in 31P NMR), 5 μM, 1 million cells/ml, 37° C., mouse hepatocytes, read-out: t1/2, Mouse Hepatocytes, Diastereoisomer A (converted)
# physchem = details: buffer, phosphate buffered saline, 10 mM phosphate buffer pH 7.5, 37° C.
# Description: To measure chemical stability in aqueous solution, the half-life (t1/2), or time needed for the concentration to decrease by half, was determined for select compounds in phosphate buffered saline solution. Compounds were dissolved in a solution containing 10 mM phosphate buffer (pH 7.5) and 5% of D2O to a final concentration of −1 mM. All spectra were obtained at 37° C. on a Bruker Avance 600 NMR spectrometer equipped with an inverse broad-band probe with z-gradients. Data were obtained every 15 min for a total time period of 4 h or longer, according to the observed stability. ^31P NMR was performed at 242.55 MHz, with gated decoupling of the protons. An observation frequency range of 14619.9 Hz and 32 K complex data points were used for acquisition. A pulse angle of 90° and a 4-sec pulse cycle were utilized. Thirty-two accumulations were obtained before Fourier transformation of the free induction decay. ^1H NMR spectra were acquired using the 1DNOESY experiment with water presaturation for better solvent suppression. An observation frequency range of 12019.23 Hz, a 10-sec pulse cycle, and 32 K complex data points were used for acquisition. Sixty-four scans were added prior to Fourier transformation. Integral data were obtained using the TopSpin software.
# Stability was determined based on analysis of disappearance of the compounds as a function of incubation time. Quantification of test compounds was measured as a peak area relative to an internal standard. The elimination constant, k, was calculated by plotting mean disappearance values on a semi-logarithmic scale and fitting with a best fit linear regression. The half-life (t1/2) expressed in hours was derived using Equation 1: t1/2=ln2/(−k). Equation 1:
# [4] = test system: PANK2 silenced human neuroblastoma IMR32 cells (PANK2−/−); assay: Coenzyme A assay in PANK2 silenced cells (LC-MS quantification of free CoA); type: cell-based; details: compound added twice (24 h + 24 h), relative to 0.1% DMSO controls
# Procedure, shortened: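 Free intracellular CoA was measured by positive-mode LC-MS/MS of 20% TFA extracts, taking 2 μl per 10^6 cells as intracellular volume. Cells were IMR32 with stable lentiviral PANK2 knockdown, dosed twice 24 h apart (48 h total, 0.1% DMSO). Output is fold increase over vehicle.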
# [5] = pH 7.5, t1/2 (h) Diastereoisomer A, Diastereoisomer A = upfield shift in the 31P NMR
# [6] = pH 7.5, t1/2 (h) Diastereoisomer B, Diastereoisomer B
SMILES,half-life [1] [h],Papp A→B at 60 min [2] [×10⁻⁶ cm/s],half-life at 5 µM [3] [h],half-life (physchem; [5]) [h],PANK2−/− CoA (Fold Increase): fold increase in Coenzyme A (CoA) levels relative to controls [4] [Fold Increase],half-life (physchem; [6]) [h]
"COC(=O)CCNC(=O)[C@@H]1O[P@@](=O)(NCc2ccccc2)OCC1(C)C [Compound No. 115, Methyl 3-((2R,4R)-2-(benzylamino)-5,5-dimethyl-2-oxido-1,3,2-dioxaphosphinane-4-carboxamido)propanoate]",0.64,4.03,< 0.25,> 60,–,–
"CCC(CC)COC(=O)[C@H](C)NP1(=O)OCC(C)(C)[C@H](C(=O)NCCC(=O)OC)O1 (stereo partly drawn) [compound 7, 2-ethylbutyl ((4R)-4-((3-methoxy-3-oxopropyl)carbamoyl)-5,5-dimethyl-2-oxido-1,3,2-dioxaphosphinan-2-yl)-L-alaninate]",–,–,–,> 40,1.56,–
"COC(=O)CCNC(=O)[C@@H]1OP(=O)(N[C@H]2CN[C@@H](C(=O)OC)C2)OCC1(C)C (stereo partly drawn) [compound 132, methyl (2R,4R)-4-(((4R)-4-((3-methoxy-3-oxopropyl)carbamoyl)-5,5-dimethyl-2-oxido-1,3,2-dioxaphosphinan-2-yl)amino) pyrrolidine-2-carboxylate]",2.39,–,0.91,4.8,1.88,3.6
"COC(=O)CCNC(=O)[C@@H]1OP(=O)(NCC2CCCO2)OCC1(C)C (stereo partly drawn) [compound 116, methyl 3-((4R)-5,5-dimethyl-2-oxido-2-(((tetrahydrofuran-2-yl)methyl)amino)-1,3,2-dioxaphosphinane-4-carboxamido)propanoate]",–,–,–,> 40,–,> 40
"COC(=O)CCNC(=O)[C@@H]1OP(N)(=O)OCC1(C)C (stereo partly drawn) [compound 114, methyl 3-((4R)-2-amino-5,5-dimethyl-2-oxido-1,3,2-dioxaphosphinane-4-carboxamido)propanoate]",–,–,–,> 40,–,> 40
